Laboratory results as given in patent US3962427A, “Antibiotic nebramycin factor VII” (Eli Lilly and Company, priority 1974, dated 1976).

Columns and labels:
[1] = system: Streptococcus sp. (group D) 9901; experiment: Agar dilution MIC, Antibiotic Spectrum of Nebramycin VII; assay type: cell-based
[2] = system: Streptococcus sp. (group D) 9960; experiment: as above; assay type: cell-based
[3] = system: Enterobater aerogenes EB2; experiment: as above; assay type: cell-based
[4] = system: Enterobacter aerogenes EB4; experiment: as above; assay type: cell-based
Enterobacter cloacae EB5 = experiment: as above; assay type: cell-based
Enterobacter cloacae EB8 = experiment: as above; assay type: cell-based
Escherichia coli EC2 = experiment: as above; assay type: cell-based
Escherichia coli EC8 = experiment: as above; assay type: cell-based
Proteus mirabilis PR3 = experiment: as above; assay type: cell-based
Proteus mirabilis PR11 = experiment: as above; assay type: cell-based
Proteus morganii PR1 = experiment: as above; assay type: cell-based
Proteus morganii PR15 = experiment: as above; assay type: cell-based
Proteus rettgeri PR2 = experiment: as above; assay type: cell-based
Proteus rettgeri PR7 = experiment: as above; assay type: cell-based
Proteus vulgaris PR27 = experiment: as above; assay type: cell-based
Proteus vulgaris PR28 = experiment: as above; assay type: cell-based
Providencia sp. 439 = experiment: as above; assay type: cell-based
[5] = system: Pseudomonas aeruginosa PI1; experiment: as above; assay type: cell-based
[6] = system: Pseudomonas aeruginosa PI12; experiment: as above; assay type: cell-based
[7] = system: Pseudomonas aeruginosa PI21; experiment: as above; assay type: cell-based
[8] = system: Pseudomonas aeruginosa PI23; experiment: as above; assay type: cell-based
[9] = system: Pseudomonas aeruginosa PI24; experiment: as above; assay type: cell-based
[10] = system: Pseudomonas aeruginosa PI27; experiment: as above; assay type: cell-based
[11] = system: Pseudomonas aeruginosa PI37; experiment: as above; assay type: cell-based
[12] = system: Pseudomonas aeruginosa PS9; experiment: as above; assay type: cell-based
[13] = system: Pseudomonas aeruginosa PS10; experiment: as above; assay type: cell-based
[14] = system: Pseudomonas aeruginosa PS14; experiment: as above; assay type: cell-based
[15] = system: Pseudomonas aeruginosa PS15; experiment: as above; assay type: cell-based
[16] = system: Pseudomonas aeruginosa PS34; experiment: as above; assay type: cell-based
Pseudomonas cepacia 3189 = experiment: as above; assay type: cell-based
Pseudomonas cepacia 5629 = experiment: as above; assay type: cell-based
[17] = system: Pseudomonas maltophilia 438; experiment: as above; assay type: cell-based
[18] = system: Pseudomonas pseudomallei 121; assay type: cell-based; details: agar dilution
[19] = system: Pseudomonas solanacearum X185; assay type: cell-based; details: agar dilution
Serratia marcescens SE3 = experiment: Agar dilution MIC, Antibiotic Spectrum of Nebramycin VII; assay type: cell-based
gram negative organisms = experiment: Antibacterial activity of nebramycin VII in words; assay type: cell-based
Solubility = assay type: physicochemical
[20] = system: Staphylococcus aureus 3055; experiment: Agar dilution MIC, Antibiotic Spectrum of Nebramycin VII; details: Staphylococcus aureus 3055, Penicillin G sensitive strain
[21] = system: Staphylococcus aureus 3074; experiment: as above; details: Staphylococcus aureus 3074, Penicillin G resistant strain
[22] = system: Staphylococcus aureus 3130; experiment: as above; details: Staphylococcus aureus 3130, Methicillin resistant strain
Pseudomonas species = details: cited from earlier work

CN[C@@H]1[C@@H](O[C@H]2O[C@H](CO)[C@@H](N)[C@H](O)[C@H]2O)O[C@H]2[C@H](O)[C@@H](N)[C@@H](O[C@H]3[C@H](O)[C@@H](O)[C@H](N)C[C@@H]3N)O[C@@H]2[C@@H]1O [Nebramycin VII]
64 µg/mL: Minimum Inhibitory Concentration [5] | Minimum Inhibitory Concentration [10]
> 256 µg/mL: Minimum Inhibitory Concentration [1] | Minimum Inhibitory Concentration [7] | Minimum Inhibitory Concentration [8] | Minimum Inhibitory Concentration [11]
8 µg/mL: Minimum Inhibitory Concentration [3] | Minimum Inhibitory Concentration [4] | Minimum Inhibitory Concentration (Enterobacter cloacae EB5) | Minimum Inhibitory Concentration (Enterobacter cloacae EB8) | Minimum Inhibitory Concentration (Proteus mirabilis PR3) | Minimum Inhibitory Concentration (Proteus morganii PR1) | Minimum Inhibitory Concentration (Proteus vulgaris PR27) | Minimum Inhibitory Concentration (Proteus vulgaris PR28) | Minimum Inhibitory Concentration [13] | Minimum Inhibitory Concentration [14] | Minimum Inhibitory Concentration [15] | Minimum Inhibitory Concentration (Serratia marcescens SE3) | Minimum Inhibitory Concentration [20]
slightly soluble: solubility in methanol (Solubility; methanol)
32 µg/mL: Minimum Inhibitory Concentration (Proteus morganii PR15) | Minimum Inhibitory Concentration (Proteus rettgeri PR2) | Minimum Inhibitory Concentration (Providencia sp. 439) | Minimum Inhibitory Concentration [18]
relatively non-toxic: toxicity (Toxicity in words)
4 µg/mL: Minimum Inhibitory Concentration [16] | Minimum Inhibitory Concentration [19] | Minimum Inhibitory Concentration [21] | Minimum Inhibitory Concentration [22]
16 µg/mL: Minimum Inhibitory Concentration (Escherichia coli EC2) | Minimum Inhibitory Concentration (Escherichia coli EC8) | Minimum Inhibitory Concentration (Proteus mirabilis PR11) | Minimum Inhibitory Concentration (Proteus rettgeri PR7) | Minimum Inhibitory Concentration [6] | Minimum Inhibitory Concentration [12] | Minimum Inhibitory Concentration [17]
substantially insoluble: solubility in the higher alcohols and most common organic solvents (Solubility; higher alcohols and most common organic solvents)
128 µg/mL: Minimum Inhibitory Concentration [2] | Minimum Inhibitory Concentration (Pseudomonas cepacia 5629)
256 µg/mL: Minimum Inhibitory Concentration [9] | Minimum Inhibitory Concentration (Pseudomonas cepacia 3189)
high degree of activity: activity against the gram negative organisms (gram negative organisms)
water soluble: solubility in water (Solubility; water)

CN[C@@H]1[C@@H](O[C@H]2O[C@H](CO)[C@@H](N)[C@H](O)[C@H]2O)OC2C[C@@H](N)[C@@H](O[C@H]3[C@H](O)[C@@H](O)[C@H](N)C[C@@H]3N)OC2[C@@H]1O (some centres unmarked) [Nebramycin II]
antibiotic activity: antibiotic activity against Pseudomonas species (Pseudomonas species)
